Assay results from patent US20050197350A1, “Novel quinoline, tetrahydroquinazoline, and pyrimidine derivatives and methods of treatment related to the use thereof” (TAISHO PHARMACEUTICAL CO., LTD., priority 2003, published 2005).

Tested on: MCH receptors
Experiment: MCH receptor activity class (method not given)
[1] = activity class per percent of control at 10^-7 M or IC50
[2] = class by percent of control at 10^-7 M or IC50
[3] = MCH receptor, class by percent of control at 10^-7 M or IC50
[4] = class by percent of control at 10^−7 M or IC50
[5] = class 1-3 by percent of control at 10^-7 M or IC50
[6] = activity class 1-3: percent of control at 10^-7 M or IC50

CN(C)c1nc(N[C@H]2CC[C@@H](NC(=O)c3ccccc3COc3ccccc3)CC2)nc2c1CCCC2 [compound 1036]
class [1]: 3 (Class 3 The value of percent of control at 10^−7 M was more than 60% or the value of IC50 was more than 200 nM.)

CN(C)c1nc(N[C@H]2CC[C@@H](NC(=S)Nc3ccc(C#N)cc3)CC2)nc2c1CCCC2 [compound 1738]
class [2]: 3 (Class 3 The value of percent of control at 10^−7 M was more than 60% or the value of IC50 was more than 200 nM.)

CN(C)c1nc(N[C@H]2CC[C@@H](CNC(=O)c3ccc(Cl)s3)CC2)nc2c1CCCC2 [compound 1065]
class [1]: 3 (Class 3 The value of percent of control at 10^−7 M was more than 60% or the value of IC50 was more than 200 nM.)

CC(C)c1cccc(C(C)C)c1NC(=O)NC[C@H]1CC[C@@H](Nc2nc3c(c(N(C)C)n2)CCCC3)CC1 [compound 2488, N-(2,6-diisopropylphenyl)-N′-[(cis-4-{[4-(dimethylamino)-5,6,7,8-tetrahydroquinazolin-2-yl]amino}cyclohexyl)methyl]urea]
class [2]: 2 (Class 2: The value of percent of control at 10^−7 M was from 40% to 60% or the value of IC′50 was from 50 nM to 200 nM.)

CN(C)c1ccnc(N[C@H]2CC[C@@H](NC(=O)c3cccc(OC(F)(F)F)c3)CC2)n1 [compound 272, N-(cis-4-{[4-(dimethylamino)pyrimidin-2-yl]amino}cyclohexyl)-3-(trifluoromethoxy)benzamide]
class [2]: 1 (Class 1: The value of percent of control at 10^−7 M was less than 40% or the value of IC50 was less than 50 nM.)

CN(C)c1nc(N[C@H]2CC[C@@H](NC(=S)Nc3cccc4nsnc34)CC2)nc2c1CCCC2 [compound 2083]
class [3]: 3 (Class 3 The value of percent of control at 10^−7 M was more than 60% or the value of IC50 was more than 200 nM.)

CN(C)c1cc(N[C@H]2CC[C@@H](CNCc3ccc(N(C)C)c4ccccc34)CC2)nc2ccccc12 [compound 1160]
class [2]: 3 (Class 3 The value of percent of control at 10^−7 M was more than 60% or the value of IC50 was more than 200 nM.)

COc1cc(OC)cc(C(=O)N[C@H]2CC[C@@H](Nc3nc(C)cc(N(C)C)n3)CC2)c1 [compound 2959, N-(cis-4-{[4-(dimethylamino)-6-methylpyrimidin-2-yl]amino}cyclohexyl)-3,5-dimethoxybenzamide]
class [4]: 1 (Class 1: The value of percent of control at 10^−7 M was less than 40% or the value of IC50 was less than 50 nM.)

Cc1cnc(N[C@H]2CC[C@@H](NC(=O)c3ccc(Cl)cc3)CC2)nc1N(C)C [compound 2907, 4-chloro-N-(cis-4-{[4-(dimethylamino)-5-methylpyrimidin-2-yl]amino}cyclohexyl)benzamide]
class [4]: 1 (Class 1: The value of percent of control at 10^−7 M was less than 40% or the value of IC50 was less than 50 nM.)

CN(C)c1nc(N[C@H]2CC[C@@H](NC(=O)COCc3ccccc3)CC2)nc2c1CCCC2 [compound 531, 2-(benzyloxy)-N-(cis-4-{[4-(dimethylamino)-5,6,7,8-tetrahydroquinazolin-2-yl]amino}cyclohexyl)acetamide]
class [5]: 2 (Class 2: The value of percent of control at 10^−7 M was from 40% to 60% or the value of IC′50 was from 50 nM to 200 nM.)

COc1ccc2[nH]cc(CN[C@H]3CC[C@@H](Nc4nc5c(c(N(C)C)n4)CCCC5)CC3)c2c1 [compound 1331]
class [2]: 1 (Class 1: The value of percent of control at 10^−7 M was less than 40% or the value of IC50 was less than 50 nM.)

CN(C)c1ccnc(N[C@H]2CC[C@@H](NC(=O)Oc3cccc(C(F)(F)F)c3)CC2)n1 [compound 1622]
class [6]: 3 (Class 3 The value of percent of control at 10^−7 M was more than 60% or the value of IC50 was more than 200 nM.)

CN(C)c1nc(N[C@H]2CC[C@@H](NC(=S)NC(C)(C)C)CC2)nc2c1CCCC2 [compound 1961]
class [3]: 3 (Class 3 The value of percent of control at 10^−7 M was more than 60% or the value of IC50 was more than 200 nM.)

COc1ccc(CN[C@H]2CC[C@@H](Nc3nc4c(c(N(C)C)n3)CCCC4)CC2)c(OC)c1 [compound 1335]
class [2]: 3 (Class 3 The value of percent of control at 10^−7 M was more than 60% or the value of IC50 was more than 200 nM.)

CCc1cccc(C)c1NC(=O)N[C@H]1CC[C@@H](Nc2cc(N(C)C)c3ccccc3n2)CC1 [compound 2092, N-(cis-4-{[4-(dimethylamino)quinolin-2-yl]amino}cyclohexyl)-N′-(2-ethyl-6-methylphenyl)urea]
class [2]: 2 (Class 2: The value of percent of control at 10^−7 M was from 40% to 60% or the value of IC′50 was from 50 nM to 200 nM.)

Cc1ccc(C(=O)N[C@H]2CC[C@@H](Nc3nc(C)c(C)c(N(C)C)n3)CC2)s1 [compound 2858]
class [4]: 1 (Class 1: The value of percent of control at 10^−7 M was less than 40% or the value of IC50 was less than 50 nM.)

COc1ccc2[nH]c(C)c(CC(=O)N[C@H]3CC[C@@H](Nc4nccc(N(C)C)n4)CC3)c2c1 [compound 821]
class [2]: 3 (Class 3 The value of percent of control at 10^−7 M was more than 60% or the value of IC50 was more than 200 nM.)

COc1ccc(NC(=S)N[C@H]2CC[C@@H](Nc3nc4c(c(N(C)C)n3)CCCC4)CC2)c([N+](=O)[O-])c1 [compound 2017]
class [3]: 3 (Class 3 The value of percent of control at 10^−7 M was more than 60% or the value of IC50 was more than 200 nM.)

COC(=O)NC[C@H]1CC[C@@H](Nc2nc3c(c(N(C)C)n2)CCCC3)CC1 [compound 1615]
class [6]: 3 (Class 3 The value of percent of control at 10^−7 M was more than 60% or the value of IC50 was more than 200 nM.)

CN(C)c1cc(N[C@H]2CC[C@@H](NCc3c[nH]c4ccccc34)CC2)nc2ccccc12 [compound 1087]
class [1]: 3 (Class 3 The value of percent of control at 10^−7 M was more than 60% or the value of IC50 was more than 200 nM.)

Cc1cnc(N[C@H]2CC[C@@H](NC(=O)C(O)c3ccc(Cl)cc3)CC2)nc1N(C)C (relative stereo) [compound 2876, 2-(4-chlorophenyl)-N-(cis-4-{[4-(dimethylamino)-5-methylpyrimidin-2-yl]amino}cyclohexyl)-2-hydroxyacetamide]
class [4]: 1 (Class 1: The value of percent of control at 10^−7 M was less than 40% or the value of IC50 was less than 50 nM.)

CN(C)c1ccnc(N[C@H]2CC[C@@H](NC(=O)Cc3ccc(F)cc3Cl)CC2)n1 [compound 814]
class [2]: 3 (Class 3 The value of percent of control at 10^−7 M was more than 60% or the value of IC50 was more than 200 nM.)

CN(C)c1nc(N[C@H]2CC[C@@H](NC(=O)c3ccc(F)c(Cl)c3)CC2)nc2c1CCCC2 [compound 509]
class [5]: 1 (Class 1: The value of percent of control at 10^−7 M was less than 40% or the value of IC50 was less than 50 nM.)

CN(C)c1cc(N[C@H]2CC[C@@H](NC(=O)Cc3sc(-c4ccccc4)nc3-c3ccc(Cl)cc3)CC2)nc2ccccc12 [compound 761]
class [2]: 3 (Class 3 The value of percent of control at 10^−7 M was more than 60% or the value of IC50 was more than 200 nM.)

CN(C)c1nc(N[C@H]2CC[C@@H](NC(=O)c3ccc(F)c(F)c3F)CC2)nc2c1CCCC2 [compound 560]
class [5]: 3 (Class 3 The value of percent of control at 10^−7 M was more than 60% or the value of IC50 was more than 200 nM.)

COc1ccccc1OC(=O)NC[C@H]1CC[C@@H](Nc2nccc(N(C)C)n2)CC1 [compound 1644]
class [6]: 3 (Class 3 The value of percent of control at 10^−7 M was more than 60% or the value of IC50 was more than 200 nM.)

CN(C)c1cc(N[C@H]2CC[C@@H](NC(=O)c3ccc4ncsc4c3)CC2)nc2ccccc12 [compound 779]
class [2]: 3 (Class 3 The value of percent of control at 10^−7 M was more than 60% or the value of IC50 was more than 200 nM.)

CN(C)c1cc(N[C@H]2CC[C@@H](CNC(=O)c3ccc(Br)s3)CC2)nc2ccccc12 [compound 788]
class [2]: 3 (Class 3 The value of percent of control at 10^−7 M was more than 60% or the value of IC50 was more than 200 nM.)

CN(C)c1cc(N[C@H]2CC[C@@H](NC(=O)c3cc(C(C)(C)C)nn3Cc3ccc(Cl)cc3Cl)CC2)nc2ccccc12 [compound 142]
class [3]: 3 (Class 3 The value of percent of control at 10^−7 M was more than 60% or the value of IC50 was more than 200 nM.)

CCCc1ccccc1NC(=O)N[C@H]1CC[C@@H](Nc2cc(N(C)C)c3ccccc3n2)CC1 [compound 2112]
class [2]: 3 (Class 3 The value of percent of control at 10^−7 M was more than 60% or the value of IC50 was more than 200 nM.)

COc1ccc(NC(=S)N[C@H]2CC[C@@H](Nc3nc4c(c(N(C)C)n3)CCCC4)CC2)cc1OC [compound 1746, N-(3,4-dimethoxyphenyl)-N′-(cis-4-{[4-(dimethylamino)-5,6,7,8-tetrahydroquinazolin-2-yl]amino}cyclohexyl)thiourea]
class [2]: 1 (Class 1: The value of percent of control at 10^−7 M was less than 40% or the value of IC50 was less than 50 nM.)

CN(C)c1nc(N[C@H]2CC[C@@H](NC(=O)Nc3ccccc3F)CC2)nc2c1CCCC2 [compound 1828]
class [2]: 3 (Class 3 The value of percent of control at 10^−7 M was more than 60% or the value of IC50 was more than 200 nM.)

Cc1cccc(C(=O)N[C@H]2CC[C@@H](Nc3nc(C)cc(N(C)C)n3)CC2)c1 [compound 2983, N-(cis-4-{[4-(dimethylamino)-6-methylpyrimidin-2-yl]amino}cyclohexyl)-3-methylbenzamide]
class [4]: 1 (Class 1: The value of percent of control at 10^−7 M was less than 40% or the value of IC50 was less than 50 nM.)

COc1ccc2ccccc2c1CNC[C@H]1CC[C@@H](Nc2nc3c(c(N(C)C)n2)CCCC3)CC1 [compound 1370]
class [2]: 3 (Class 3 The value of percent of control at 10^−7 M was more than 60% or the value of IC50 was more than 200 nM.)

Cc1cccc(Cl)c1NC(=O)N[C@H]1CC[C@@H](Nc2cc(N(C)C)c3ccccc3n2)CC1 [compound 2104]
class [2]: 3 (Class 3 The value of percent of control at 10^−7 M was more than 60% or the value of IC50 was more than 200 nM.)

CN(C)c1ccnc(N[C@H]2CC[C@@H](NC(=O)c3ccc(F)c(Cl)c3F)CC2)n1 [compound 280]
class [2]: 3 (Class 3 The value of percent of control at 10^−7 M was more than 60% or the value of IC50 was more than 200 nM.)
